# From US20040229205A1, “Compositions for the storage of platelets” (priority 2003, published 2004)
# Key:
# [1] = test system: platelets (adhesion to adventitia of human renal artery); assay: Platelet adhesion assay in microflow chamber on human renal artery section; assay type: cell-based; details: 1.5 mM D-ribose solution, eight days of storage
# Method: The ability of platelets to aggregate as a measure of function can also be assayed by ability to adhere to and […] on tissue, such as the adventitia and intima of arteries. Normal, healthy, functional platelets will show deposition and attachment onto tissue whereas compromised, poorly functional or nonfunctional platelets will have decreased levels of platelet attachment. Platelet rich plasma (PRP) was prepared from a random donor bag of platelets, which were harvested and resuspended in plasma at a concentration of at least 10^6 platelets per milliliter. On Day 1, the platelets were allowed to stand at room temperature for eight hours and were then tested in the platelet adhesion assay. Fresh frozen human renal artery was sectioned and placed flat on a microscope slide. A microflow chamber was constructed to pull PRP across the section at a defined flow rate and defined shear rate. The direction of flow is adventitia, through the media and intima and into the lumen, as illustrated in FIG. 10. Functional platelets will adhere to the adventitia and form accretion zones that initiate at the adventitia (the outside of the blood vessel) and extend across the media and intima. Non-functional platelets are unable to adhere to the adventitia. Therefore, the adhesion assay is a sensitive test of platelet function. Following the baseline test, a portion of the platelet suspension was set aside as control, without additional solution added. Another portion of the platelets were suspended in a solution containing: [table]
# bacteria = assay: Bacterial contamination of platelet storage solution by colony counts in Petri dishes; details: D-Ribose added to the storage cocktail
# Method: Bacterial contamination was measured by colony counts in standard Petri dishes that had been inculated with the test solution. It is assumed that the millimolar glucose concentration in most platelet storage solutions contributes to the growth of bacteria. As noted above, Murphy (Table II) discloses a glucose-free solution for the storage of platelets. Elimination of reduction of glucose levels from millimolar to micromolar concentrations has a profound effect in reducing bacterial contamination, however, platelet function at five days, as measured by ATP secretion and P-selectin expression, was poor.
# [2] = test system: platelets (P-selectin expression); assay: P-selectin expression of stored platelets by flow cytometry, basal and after 10 nM thrombin challenge; assay type: cell-based; details: for Difference (% capable of being activated) / % Positive / P-Selectin Expression: five day stored platelets; for retained P-selectin expression activity: thrombin challenge
# Excerpt: Internal protein expression may be measured by conjugation of a molecule with a fluorescent dye, followed by sorting in a fluorescent cell sorter. In general, it is preferable to use two monoclonal antibodies, one that binds a cell surface molecule expressed and a second that binds a cell surface molecule that is expressed only after activation. Each monoclonal antibody is conjugated to a different colored dye, that can be distinguished by spectrofluorometry. In the preferred embodiment, the normally expressed cell surface molecule is GPIIbIIIa; the cell surface molecule expressed after activation is P-selectin. It is well know in the art to make monoclonal antibodies to proteins. U.S. Pat. No. 5,470,738, issued in 1995 to Freilich et al, is one example of a method of making monoclonal antibodies to GPIIIa. Another anti-platelet monoclonal antibody is that to GP IV, as disclosed by U.S. Pat. No. 5,231,025, issued in 1993 to Gralnisch. However, it is most convenient to purchase antibodies commercially from such companies as Becton-Dickinson (Philadelphia).
# A basal measurement of spontaneous activation is obtained and the cells are then challenged with an agonist. The difference between cells challenged to activate minus the basal measurement is a measure of cell function. In the preferred embodiment, the agonist is 10 nM thrombin.
# P-selectin is an internal protein that is exposed on the surface of the platelet after activation. Once activated, platelets cannot be activated again, that is, they are nonfunctional. Platelets which have aggregated are likewise nonfunctional. Measurement of P-selectin before and after activation with thrombin provides a measure of the ability of the platelets to be activated.
# P-selectin expression in response to a challenge of 10 nM thrombin is a highly accurate and quantitative method to assess platelet function using flow cytometry techniques. A monoclonal antibody to the platelet GPIIbIIIa receptor (Becton-Dickinson) is conjugated with green fluorescence, marking all platelets with a green detection. […] About 10,000 to 25,000 platelets are counted and measured for P-selectin expression and the % positive cells are defined as activated platelets that express P-selectin. Platelets that are activated are not capable of being activated a second time; that is, they are essentially nonfunctional.
# It was proposed years ago by Dawson (Transfusion 21:215-218. (1981)) that ribose at the concentration of 15 mM is beneficial to stored whole blood. It was assumed that ribose functioned by raising the energy levels of the cells, as discussed at length in U.S. Pat. No. 6,159,942. […] However, it should be noted that the platelet storage milieu is an austere environment, lacking the homeostatic and buffering mechanisms of the kidneys, lungs and livers of an intact organism. Various concentrations of D-Ribose were tested to determine the optimum level for platelet storage. […] Platelet concentrate bags were obtained from a local transfusion center within two hours of collection from the donor. The platelets were either supplemented with the D-Ribose cocktail directly into the bag or the platelets were divided into a series of 10 tubes into each of which two ml of platelets were added. Platelet function was assessed by ATP secretion, platelet aggregation, P-selectin expression, platelet count and pH. Platelet function was measured every 24 hours. The bags and tubes were placed on a rotating wheel at room temperature for the duration of the experiment.
# For the concentration test, platelets were stored for five days in standard platelet storage solution at room temperature and gentle agitation with or without various levels of ribose. At five days the P-selectin expression test was performed.
smiles,measurement,setting,value
O=C[C@H](O)[C@H](O)[C@H](O)CO [D-Ribose],platelet adhesion,[1]; 30 seconds of flow,very early platelet adhesion at the adventitia
same,platelet adhesion and accretion,[1]; 2.5 minutes of flow,significant platelet adhesion and accretion zones
same,platelet adhesion and accretion,[1]; 4.5 minutes of flow,formed a large platelet mass at the adventitia
same,incidence of bacterial contamination,bacteria,lower incidence of bacterial contamination
same,Difference (% capable of being activated),[2]; 150 pM D-Ribose,10.9%
same,% Positive,"[2]; 150 pM D-Ribose, + thrombin",42.6%
same,P-Selectin Expression,"[2]; 150 pM D-Ribose, + thrombin",15475
same,% Positive,"[2]; 150 pM D-Ribose, basal",31.7%
same,P-Selectin Expression,"[2]; 150 pM D-Ribose, basal",11260
same,preserving function (P-selectin expression test),"[2]; 150 pM D-Ribose, five days storage",ineffective
same,retained activity,"[2]; 150 nM D-Ribose, 8 days of storage",greater than 75%
same,retained activity,"[2]; 150 nM D-Ribose, 10 days of storage",greater than 50%
same,Difference (% capable of being activated),[2]; 150 nM D-Ribose,60.6%
same,% Positive,"[2]; 150 nM D-Ribose, + thrombin",65.7%
same,P-Selectin Expression,"[2]; 150 nM D-Ribose, + thrombin",41480
same,% Positive,"[2]; 150 nM D-Ribose, basal",5.1%
same,P-Selectin Expression,"[2]; 150 nM D-Ribose, basal",2465
same,retained P-selectin expression activity,"[2]; 150 nM D-Ribose, five days storage",about 60%
same,retention of activation activity on activation with thrombin,"[2]; 153 nM D-Ribose, three days storage",78.8%
same,positive (activated) cells,"[2]; 153 nM D-Ribose, three days storage, basal",5%
same,Difference (% capable of being activated),[2]; 15 μM D-Ribose,58.3%
same,% Positive,"[2]; 15 μM D-Ribose, + thrombin",64.4%
same,P-Selectin Expression,"[2]; 15 μM D-Ribose, + thrombin",34960
same,% Positive,"[2]; 15 μM D-Ribose, basal",6.1%
same,P-Selectin Expression,"[2]; 15 μM D-Ribose, basal",3275
same,Difference (% capable of being activated),[2]; 1.5 mM D-Ribose,34.4%
same,% Positive,"[2]; 1.5 mM D-Ribose, + thrombin",60.0%
same,P-Selectin Expression,"[2]; 1.5 mM D-Ribose, + thrombin",32400
same,% Positive,"[2]; 1.5 mM D-Ribose, basal",40.4%
same,P-Selectin Expression,"[2]; 1.5 mM D-Ribose, basal",21605
same,retained P-selectin expression activity,"[2]; 1.5 mM D-Ribose, five days storage",about 60%
